# pIC50: −log10 of the molar value.
# Tested on: RS4;11 cells
# Test: Cell viability assay (CellTiter-Glo) in RS4;11 cells
# Format: cell-based
# Settings: Homo sapiens, 72 h; RS4;11 ALL cells treated for three days; read-out: cell viability inhibition IC50
# How it was run: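 Three-day compound treatment of RS4;11 ALL cells (5000/well, 3-fold dilution series of 8 or 12 points), with IC50 from a nonlinear least-squares fit to CellTiter-Glo viability data.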
row,pIC50,Compound
1,> 7.00,CS(=O)(=O)c1ccc(-c2cccc3nc(Nc4ccc(N5CCN(C(=O)CCCCCCCNc6ccc7c(c6)C(=O)N(C6CCC(=O)NC6=O)C7=O)CC5)cc4)nn23)cc1 (stereo not shown) [JA-203]

# Same assay, conditions: Homo sapiens, 72 h; RS4;11 cells; cell viability, 3 days, CellTiter-Glo; read-out: IC50
row,Compound,pIC50
1,"Cc1ncsc1-c1ccc(CNC(=O)[C@@H]2C[C@@H](O)CN2C(=O)[C@@H](NC(=O)COCCOCCOCCNC(=O)CN2CCN(c3ccc(Nc4nc5cccc(-c6ccc(S(C)(=O)=O)cc6)n5n4)cc3)CC2)C(C)(C)C)cc1 [JA-131, (2S,4R)-1-((S)-2-(tert-Butyl)-17-(4-(4-((5-(4-(methylsulfonyl)phenyl)-[1,2,4]triazolo[1,5-a]pyridin-2-yl)amino)phenyl)piperazin-1-yl)-4,16-dioxo-6,9,12-trioxa-3,15-diazaheptadecanoyl)-4-hydroxy-N-(4-(4-methylthiazol-5-yl)benzyl)pyrrolidine-2-carboxamide]",< 5.00
2,"Cc1ncsc1-c1ccc(CNC(=O)[C@@H]2C[C@@H](O)CN2C(=O)[C@@H](NC(=O)CCOCCOCCOCCC(=O)N2CCN(c3ccc(Nc4nc5cccc(-c6ccc(S(C)(=O)=O)cc6)n5n4)cc3)CC2)C(C)(C)C)cc1 [JA-068, (2S,4R)-1-((S)-2-(tert-Butyl)-16-(4-(4-((5-(4-(methylsulfonyl)phenyl)-[1,2,4]triazolo[1,5-a]pyridin-2-yl)amino)phenyl)piperazin-1-yl)-4,16-dioxo-7,10,13-trioxa-3-azahexadecanoyl)-4-hydroxy-N-(4-(4-methylthiazol-5-yl)benzyl)pyrrolidine-2-carboxamide]",< 5.00
3,"O=C1CCC(N2C(=O)c3ccc(NCCC(=O)N4CCC(n5cc(-c6cnc7cccc(-c8cc(F)c(CN9CCOCC9)c(F)c8)c7n6)cn5)CC4)cc3C2=O)C(=O)N1 (stereo not shown) [JA-190, 5-((3-(4-(4-(8-(3,5-Difluoro-4-(morpholinomethyl)phenyl)quinoxalin-2-yl)-1H-pyrazol-1-yl)piperidin-1-yl)-3-oxopropyl)amino)-2-(2,6-dioxopiperidin-3-yl)isoindoline-1,3-dione]",5.29
4,"Cc1cnc(Nc2ccc(N3CCN(CC(=O)NCCCCCCCC(=O)N[C@H](C(=O)N4C[C@H](O)C[C@H]4C(=O)NCc4ccc(-c5scnc5C)cc4)C(C)(C)C)CC3)cc2)nc1Nc1cccc(S(=O)(=O)NC(C)(C)C)c1 [JA-103, (2S,4R)-1-((S)-2-(8-(2-(4-(4-((4-((3-(N-(tert-Butyl)sulfamoyl)phenyl)amino)-5-methylpyrimidin-2-yl)amino)phenyl)piperazin-1-yl)acetamido)octanamido)-3,3-dimethylbutanoyl)-4-hydroxy-N-(4-(4-methylthiazol-5-yl)benzyl)pyrrolidine-2-carboxamide]",5.05
5,"Cc1ncsc1-c1ccc(CNC(=O)[C@@H]2C[C@@H](O)CN2C(=O)[C@@H](NC(=O)CCCCCCCCCNC(=O)CN2CCC(n3cc(-c4cnc5cccc(-c6cc(F)c(CN7CCOCC7)c(F)c6)c5n4)cn3)CC2)C(C)(C)C)cc1 [JA-166, (2S,4R)-1-((S)-2-(10-(2-(4-(4-(8-(3,5-Difluoro-4-(morpholinomethyl)phenyl)quinoxalin-2-yl)-1H-pyrazol-1-yl)piperidin-1-yl)acetamido)decanamido)-3,3-dimethylbutanoyl)-4-hydroxy-N-(4-(4-methylthiazol-5-yl)benzyl)pyrrolidine-2-carboxamide]",5.35
6,"O=C1CCC(N2C(=O)c3cccc(NCCCCCCC(=O)N4CCC(n5cc(-c6cnc7cccc(-c8cc(F)c(CN9CCOCC9)c(F)c8)c7n6)cn5)CC4)c3C2=O)C(=O)N1 (stereo not shown) [JA-040, 4-[[7-[4-[4-[8-[3,5-Difluoro-4-(morpholinomethyl)phenyl]quinoxalin-2-yl]pyrazol-1-yl]-1-piperidyl]-7-oxo-heptyl]amino]-2-(2,6-dioxo-3-piperidyl)isoindoline-1,3-dione]",< 5.00
7,"Cc1ncsc1-c1ccc(CNC(=O)[C@@H]2C[C@@H](O)CN2C(=O)[C@@H](NC(=O)CCCCCCCCCC(=O)N2CCC(n3cc(-c4cnc5cccc(-c6cc(F)c(CN7CCOCC7)c(F)c6)c5n4)cn3)CC2)C(C)(C)C)cc1 [JA-059, (2S,4R)-1-[(2S)-2-[[11-[4-[4-[8-[3,5-Difluoro-4-(morpholinomethyl)phenyl]quinoxalin-2-yl]pyrazol-1-yl]-1-piperidyl]-11-oxo-undecanoyl]amino]-3,3-dimethyl-butanoyl]-4-hydroxy-N-[[4-(4-methylthiazol-5-yl)phenyl]methyl]pyrrolidine-2-carboxamide]",< 5.00
8,"Cc1cnc(Nc2ccc(N3CCN(CC(=O)NCCCCC(=O)N[C@H](C(=O)N4C[C@H](O)C[C@H]4C(=O)NCc4ccc(-c5scnc5C)cc4)C(C)(C)C)CC3)cc2)nc1Nc1cccc(S(=O)(=O)NC(C)(C)C)c1 [JA-100, (2S,4R)-1-((S)-2-(5-(2-(4-(4-((4-((3-(N-(tert-Butyl)sulfamoyl)phenyl)amino)-5-methylpyrimidin-2-yl)amino)phenyl)piperazin-1-yl)acetamido)pentanamido)-3,3-dimethylbutanoyl)-4-hydroxy-N-(4-(4-methylthiazol-5-yl)benzyl)pyrrolidine-2-carboxamide]",< 5.00
9,"CS(=O)(=O)c1ccc(-c2cccc3nc(Nc4ccc(N5CCN(CC(=O)NCCCNc6cccc7c6C(=O)N(C6CCC(=O)NC6=O)C7=O)CC5)cc4)nn23)cc1 (stereo not shown) [JA-111, N-(3-((2-(2,6-Dioxopiperidin-3-yl)-1,3-dioxoisoindolin-4-yl)amino)propyl)-2-(4-(4-((5-(4-(methylsulfonyl)phenyl)-[1,2,4]triazolo[1,5-a]pyridin-2-yl)amino)phenyl)piperazin-1-yl)acetamide]",< 5.00
10,"Cc1ncsc1-c1ccc(CNC(=O)[C@@H]2C[C@@H](O)CN2C(=O)[C@@H](NC(=O)CNC(=O)CN2CCC(n3cc(-c4cnc5cccc(-c6cc(F)c(CN7CCOCC7)c(F)c6)c5n4)cn3)CC2)C(C)(C)C)cc1 [JA-158, (2S,4R)-1-((S)-2-(2-(2-(4-(4-(8-(3,5-Difluoro-4-(morpholinomethyl)phenyl)quinoxalin-2-yl)-1H-pyrazol-1-yl)piperidin-1-yl)acetamido)acetamido)-3,3-dimethylbutanoyl)-4-hydroxy-N-(4-(4-methylthiazol-5-yl)benzyl)pyrrolidine-2-carboxamide]",< 5.00
11,"Cc1ncsc1-c1ccc(CNC(=O)[C@@H]2C[C@@H](O)CN2C(=O)[C@@H](NC(=O)COCC(=O)N2CCC(n3cc(-c4cnc5cccc(-c6cc(F)c(CN7CCOCC7)c(F)c6)c5n4)cn3)CC2)C(C)(C)C)cc1 [JA-057, (2S,4R)-1-[(2S)-2-[[2-[2-[4-[4-[8-[3,5-Difluoro-4-(morpholinomethyl)phenyl]quinoxalin-2-yl]pyrazol-1-yl]-1-piperidyl]-2-oxo-ethoxy]acetyl]amino]-3,3-dimethyl-butanoyl]-4-hydroxy-N-[[4-(4-methylthiazol-5-yl)phenyl]methyl]pyrrolidine-2-carboxamide]",< 5.00
12,"Cc1cnc(Nc2ccc(N3CCN(C(=O)CCCCCC(=O)N[C@H](C(=O)N4C[C@H](O)C[C@H]4C(=O)NCc4ccc(-c5scnc5C)cc4)C(C)(C)C)CC3)cc2)nc1Nc1cccc(S(=O)(=O)NC(C)(C)C)c1 [JA-025, (2S,4R)-1-((S)-2-(7-(4-(4-((4-((3-(N-(tert-Butyl)sulfamoyl)phenyl)amino)-5-methylpyrimidin-2-yl)amino)phenyl)piperazin-1-yl)-7-oxoheptanamido)-3,3-dimethylbutanoyl)-4-hydroxy-N-(4-(4-methylthiazol-5-yl)benzyl)pyrrolidine-2-carboxamide]",< 5.00

# Now from value to compound:
row,pIC50,Compound
1,< 5.00,"Cc1cnc(Nc2ccc(N3CCN(CC(=O)NCCOCCNc4ccc5c(c4)C(=O)N(C4CCC(=O)NC4=O)C5=O)CC3)cc2)nc1Nc1cccc(S(=O)(=O)NC(C)(C)C)c1 (stereo not shown) [JA-237, 2-(4-(4-((4-((3-(N-(tert-butyl)sulfamoyl)phenyl)amino)-5-methylpyrimidin-2-yl)amino)phenyl)piperazin-1-yl)-N-(2-(2-((2-(2,6-dioxopiperidin-3-yl)-1,3-dioxoisoindolin-5-yl)amino)ethoxy)ethyl)acetamide]"
2,5.72,"CS(=O)(=O)c1ccc(-c2cccc3nc(Nc4ccc(N5CCN(CCCCCCOc6ccc7c(c6)C(=O)N(C6CCC(=O)NC6=O)C7=O)CC5)cc4)nn23)cc1 (stereo not shown) [JA-256, 2-(2,6-Dioxopiperidin-3-yl)-5-((6-(4-(4-((5-(4-(methylsulfonyl)phenyl)-[1,2,4]triazolo[1,5-a]pyridin-2-yl)amino)phenyl)piperazin-1-yl)hexyl)oxy)isoindoline-1,3-dione]"
3,5.25,"Cc1cnc(Nc2ccc(N3CCN(CC(=O)NCCOCC(=O)N[C@H](C(=O)N4C[C@H](O)C[C@H]4C(=O)NCc4ccc(-c5scnc5C)cc4)C(C)(C)C)CC3)cc2)nc1Nc1cccc(S(=O)(=O)NC(C)(C)C)c1 [JA-217, (2S,4R)-1-((S)-2-(2-(2-(2-(4-(4-((4-((3-(N-(tert-butyl)sulfamoyl)phenyl)amino)-5-methylpyrimidin-2-yl)amino)phenyl)piperazin-1-yl)acetamido)ethoxy)acetamido)-3,3-dimethylbutanoyl)-4-hydroxy-N-(4-(4-methylthiazol-5-yl)benzyl)pyrrolidine-2-carboxamide]"
4,7.64,CS(=O)(=O)c1ccc(-c2cccc3nc(Nc4ccc(N5CCN(C(=O)CCCCCCCNc6ccc7c(c6)C(=O)N(C6CCC(=O)NC6=O)C7=O)CC5)cc4)nn23)cc1 (stereo not shown) [JA-203]
5,6.59,"CS(=O)(=O)c1ccc(-c2cccc3nc(Nc4ccc(N5CCN(C(=O)CCCCCOc6ccc7c(c6)C(=O)N(C6CCC(=O)NC6=O)C7=O)CC5)cc4)nn23)cc1 (stereo not shown) [JA-255, 2-(2,6-Dioxopiperidin-3-yl)-5-((6-(4-(4-((5-(4-(methylsulfonyl)phenyl)-[1,2,4]triazolo[1,5-a]pyridin-2-yl)amino)phenyl)piperazin-1-yl)-6-oxohexyl)oxy)isoindoline-1,3-dione]"
6,6.98,"CS(=O)(=O)c1ccc(-c2cccc3nc(Nc4ccc(N5CCN(C(=O)CCCCCCc6ccc7c(c6)C(=O)N(C6CCC(=O)NC6=O)C7=O)CC5)cc4)nn23)cc1 (stereo not shown) [JA-249, 2-(2,6-Dioxopiperidin-3-yl)-5-(7-(4-(4-((5-(4-(methylsulfonyl)phenyl)-[1,2,4]triazolo[1,5-a]pyridin-2-yl)amino)phenyl)piperazin-1-yl)-7-oxoheptyl)isoindoline-1,3-dione]"
